Reference: patent publication US20100197584A1, “USE OF CURCUMIN TO BLOCK BRAIN TUMOR FORMATION IN MICE” (Research Foundations of the City University of- New York, priority 2007, published 2010)

Key:
[1] = test system: HOG (human oligodendroglioma) cells; experiment: Caspase-3/7 assay in HOG cells; format: cell-based; conditions: 20 μM and 50 μM, 48 h or 96 h (FIG. 3)
Protocol: Cells. B16F10 (mouse melanoma), GL261 (mouse glioma), HOG (human oligodendroglioma), A549 (human lung cancer), and […] (mouse neuroblastoma) cells were cultured separately in DMEM containing 10% (v/v) fetal bovine serum and 1% (v/v) penicillin-streptomycin (PS) and allowed to grow to 40% confluence in a 96-well plate. Curcumin Treatment. Two hours before drug treatment, the medium in each well was replaced with 200 μl Neurobasal medium supplemented with 2% (v/v) B27 and 1% (v/v) PS (Drug-treatment Medium). A stock solution (40 mM) of curcumin was prepared in sterile dimethyl sulfoxide (DMSO) (Example 1). Through serial dilution of each stock solution in Drug-treatment Medium, the following concentrations were obtained: 20 μM and 50 μM (for caspase 3/7 assays) or 25 μM and 50 μM (for MTT assays). Drug-treatment Medium in each well was aspirated, and a drug solution of each concentration or carrier-containing medium (control) was added to triplicate wells of cells (50 μl/well). […] Additionally, the background absorbance was determined from parallel wells containing only the Drug-treatment Medium plus a particular concentration of the drug (no cells). […] Fluorescence in each well was measured using the FLx 800 plate reader (Bio-Tek Instruments, Winooski, Vt.) set at 485/20 nm excitation and 528/20 nm emission wavelengths and the sensitivity of 70. […]

BclXL = experiment: Western blot of B16F10 cells, BclXL; format: cell-based, mouse; conditions: 50 μM (FIG. 9)
Protocol: B16F10 cells were cultured in 10-cm plates and then treated in duplicate with carrier or curcumin (50 μM). Following treatment for appropriate time periods, the cells were washed with PBS, lysed in RIPA buffer (PBS containing 1% Nonidet P40, 0.5% sodium deoxycholate, 0.1% SDS, 0.5 mM Na3VO4 plus freshly added PMSF and protease inhibitor cocktail; Boeringer-Roche), and then 20 μg of lysate protein (per lane) were analyzed by SDS-10% PAGE and Western blot analysis. Antibody concentrations used were: anti-phospho-NF-κB (1:1000) (Santa Cruz Biotechnology, Santa Cruz, Calif.), anti-phospho-Akt (1:5000) (Cell Signaling, CA), anti-cyclin D1 (1:1000) (Cell Signaling, CA), anti-BclXL (1:500) (Santa Cruz Biotechnology), anti-VEGF (1:500) (Santa Cruz Biotechnology), and anti-β-actin (1:1000) (Sigma, St. Louis, Mo.).

In the case of `COc1cc(/C=C/C(=O)CC(=O)/C=C/c2ccc(O)c(OC)c2)ccc1O` [curcumin], the caspase-3/7 activity [1] is reported as “increased” and the “BclXL (Western blot)” value (BclXL) is reported as “suppression”.
